The test system of the test is human M2 macrophages. Briefly: Inhibition of human M2 macrophage activity, hCCL22 in culture supernatant by ELISA. Type of test: cell-based. The conditions noted are these: hCCL22 secretion, THP-1 derived M2-like macrophages, compound present during 72 hours of differentiation. As for the experimental part:
To obtain human M2 macrophages, human monocytes (THP-1 monocyte, CD4 expression) were stabilized in a 96-well plate for 24 hours and then incubated in culture media containing 100 ng/mL phorbal 12-myristate-13-acetate (PMA; Sigma, P8139) for 24 hours to differentiate into M0 macrophages (macrophage-like phenotype). It was confirmed that differentiated M0 macrophages had reduced CD4 expression and expressed CD11b. M0 macrophages in the plate well were washed once with culture media and incubated in culture media containing 25 ng/mL hIL-4 (Peprotech, 200-04-50) and 25 ng/mL hIL-13 (Peprotech, 200-13-50) for 72 hours to differentiate into M2-like macrophages. Test compounds were diluted by concentration in M2 differentiation media and treated simultaneously during a differentiation period of 72 hours. The inhibitory effect of the test compounds on M2 macrophages was determined by measuring hCCL22 in the medium culture supernatant cultured for 72 hours using an ELISA assay (R&D system, DMD00). The results of the activity measurements are represented in Table 3 (EC50), Table 4 ([…] inhibitory activity at 5 μM) and Table 5 (hCCL22 inhibitory activity at 10 μM).
(ELISA stands for enzyme-linked immunosorbent assay.)

In US20250042911A1, “NOVEL BENZOPYRAN DERIVATIVE AND USE THEREOF” (SPARK BIOPHARMA, INC, priority 2021, published 2025) one finds EC50 data, which are given here for 19 compounds.

By EC50 is commonly meant the concentration at which the effect is half-maximal. Low readings indicate higher potency in that assay, high ones lower potency in that assay.

Where a name gives a salt, the structure may show the parent alone.

With `CNc1c(Cl)cc2c(c1Cl)OC(C)(C)C1=CCn3c(=O)n(-c4ccc(C(C)=O)cc4)c(=O)n3C12` (stereo not shown) [Example 36, 2-(4-acetylphenyl)-9,11-dichloro-7,7-dimethyl-10-(methylamino)-5,12b-dihydro-1H,7H-chromeno[4,3-c][1,2,4]triazolo[1,2-a]pyridazine-1,3(2H)-dione], a half-maximal response (EC50) required 10.8 µM.
The same measure for `CC(=O)c1ccc(-n2c(=O)n3n(c2=O)C2C(=CC3)C(C)(C)Oc3c2cc(Cl)c(NC(C)C)c3Cl)cc1` (stereo not shown) [Example 37, 2-(4-acetylphenyl)-9,11-dichloro-10-(isopropylamino)-7,7-dimethyl-5,12b-dihydro-1H,7H-chromeno[4,3-c][1,2,4]triazolo[1,2-a]pyridazine-1,3(2H)-dione]: 14.7 µM.
For `CC(=O)c1ccc(-n2c(=O)n3n(c2=O)C2C(=CC3)C(C)(C)Oc3cc(-c4cc(C)nn4C)ccc32)cc1` (stereo not shown) [Example 38, 2-(4-acetylphenyl)-10-(1,3-dimethyl-1H-pyrazol-5-yl)-7,7-dimethyl-5,12b-dihydro-1H,7H-chromeno[4,3-c][1,2,4]triazolo[1,2-a]pyridazine-1,3(2H)-dione], the EC50 came to 31.6 µM.
Take `CC(=O)c1ccc(-n2c(=O)n3n(c2=O)C2C(=CC3)C(C)(C)Oc3cc(-c4nc(C)sc4C)ccc32)cc1` (stereo not shown) [Example 39, 2-(4-acetylphenyl)-10-(2,5-dimethylthiazol-4-yl)-7,7-dimethyl-5,12b-dihydro-1H,7H-chromeno[4,3-c][1,2,4]triazolo[1,2-a]pyridazine-1,3(2H)-dione]: the EC50 was 73.1 µM.
`CCn1nc(C)c(-c2ccc3c(c2)OC(C)(C)C2=CCn4c(=O)n(-c5ccc(C(C)=O)cc5)c(=O)n4C23)c1C` (stereo not shown) [Example 40, 2-(4-acetylphenyl)-10-(1-ethyl-3,5-dimethyl-1H-pyrazol-4-yl)-7,7-dimethyl-5,12b-dihydro-1H,7H-chromeno[4,3-c][1,2,4]triazolo[1,2-a]pyridazine-1,3(2H)-dione] showed a 50% effective concentration (EC50) of 53.8 µM.
`CC(=O)c1ccc(-n2c(=O)n3n(c2=O)C2C(=CC3)C(C)(C)Oc3cc(-c4cccnc4)ccc32)cc1` (stereo not shown) [Example 42, 2-(4-acetylphenyl)-7,7-dimethyl-10-(pyridin-3-yl)-5,12b-dihydro-1H,7H-chromeno[4,3-c][1,2,4]triazolo[1,2-a]pyridazine-1,3(2H)-dione] returned a concentration giving a half-maximal response (EC50) of 31.2 µM.
In the case of `CC(=O)c1ccc(-n2c(=O)n3n(c2=O)C2C(=CC3)C(C)(C)Oc3cc(-c4ccncc4)ccc32)cc1` (stereo not shown) [Example 43, 2-(4-acetylphenyl)-7,7-dimethyl-10-(pyridin-4-yl)-5,12b-dihydro-1H,7H-chromeno[4,3-c][1,2,4]triazolo[1,2-a]pyridazine-1,3(2H)-dione], the 50% effective concentration (EC50) came to 19.2 µM.
`CC(=O)c1ccc(-n2c(=O)n3n(c2=O)C2C(=CC3)C(C)(C)Oc3cc(N(C)C(C)C)ccc32)cc1` (stereo not shown) [Example 45, 2-(4-acetylphenyl)-10-(isopropyl(methyl)amino)-7,7-dimethyl-5,12b-dihydro-1H,7H-chromeno[4,3-c][1,2,4]triazolo[1,2-a]pyridazine-1,3(2H)-dione] yielded an EC50 of 9.1 µM.
Consider `CC(=O)c1ccc(-n2c(=O)n3n(c2=O)C2C(=CC3)C(C)(C)Oc3cc(N(C(C)C)C(C)C)ccc32)cc1` (stereo not shown) [Example 47, 2-(4-acetylphenyl)-10-(diisopropylamino)-7,7-dimethyl-5,12b-dihydro-1H,7H-chromeno[4,3-c][1,2,4]triazolo[1,2-a]pyridazine-1,3(2H)-dione], for which the midpoint of the response, the EC50, lay at 8.1 µM.
The compound `CN1CCN(c2ccc3c(c2)OC(C)(C)C2=CCn4c(=O)n(-c5ccc(C(C)(C)C)cc5)c(=O)n4C23)CC1` (stereo not shown) [Example 48, 2-(4-(tert-butyl)phenyl)-7,7-dimethyl-10-(4-methylpiperazin-1-yl)-5,12b-dihydro-1H,7H-chromeno[4,3-c][1,2,4]triazolo[1,2-a]pyridazine-1,3(2H)-dione] returned an EC50 of 9.7 µM.
On to `CN1CCN(c2ccc3c(c2)OC(C)(C)C2=CCn4c(=O)n(-c5ccc(C(F)(F)F)cc5)c(=O)n4C23)CC1` (stereo not shown) [Example 49, 7,7-dimethyl-10-(4-methylpyrerazin-1-yl)-2-(4-(trifluoromethyl)phenyl)-5,12b-dihydro-1H,7H-chromeno[4,3-c][1,2,4]triazolo[1,2-a]pyridazine-1,3(2H)-dione], for which the EC50 was 12.1 µM.
Consider `CN1CCN(c2ccc3c(c2)OC(C)(C)C2=CCn4c(=O)n(-c5ccc(F)cc5)c(=O)n4C23)CC1` (stereo not shown) [Example 50, 2-(4-fluorophenyl)-7,7-dimethyl-10-(4-methylpiperazin-1-yl)-5,12b-dihydro-1H,7H-chromeno[4,3-c][1,2,4]triazolo[1,2-a]pyridazine-1,3(2H)-dione], for which the EC50 came out at 25.6 µM.
The same measure for `CC(=O)c1ccc(-n2c(=O)n3n(c2=O)C2C(=CC3)C(C)(C)Oc3cc(N4CCN(C)CC4)ccc32)cc1` (stereo not shown) [Example 51, 2-(4-acetylphenyl)-7,7-dimethyl-10-(4-methylpiperazin-1-yl)-5,12b-dihydro-1H,7H-chromeno[4,3-c][1,2,4]triazolo[1,2-a]pyridazine-1,3(2H)-dione]: 33.5 µM; for `CC(=O)c1ccc(-n2c(=O)n3n(c2=O)C2C(=CC3)C(C)(C)Oc3cc(N4CCN(S(C)(=O)=O)CC4)ccc32)cc1` (stereo not shown) [Example 52, 2-(4-acetylphenyl)-7,7-dimethyl-10-(4-(methylsulfonyl)piperazin-1-yl)-5,12b-dihydro-1H,7H-chromeno[4,3-c][1,2,4]triazolo[1,2-a]pyridazine-1,3(2H)-dione]: 26.4 µM.
`CC1(C)Oc2cc(O)ccc2C2C1=CCn1c(=O)n(-c3ccc(C(=O)N4CCOCC4)cc3)c(=O)n12` (stereo not shown) [Example 53, 10-hydroxy-7,7-dimethyl-2-(4-(morpholine-4-carbonyl)phenyl)-5,12b-dihydro-1H,7H-chromeno[4,3-c][1,2,4]triazolo[1,2-a]pyridazine-1,3(2H)-dione] displayed an EC50 of 4.5 µM.
On to `CC(C)(C)OC(=O)N1CCN(C(=O)c2ccc(-n3c(=O)n4n(c3=O)C3C(=CC4)C(C)(C)Oc4cc(O)ccc43)cc2)CC1` (stereo not shown) [Example 54, tert-butyl 4-(4-(10-hydroxy-7,7-dimethyl-1,3-dioxo-5,12b-dihydro-1H,7H-chromeno[4,3-c][1,2,4]triazolo[1,2-a]pyridazin-2(3H)-yl)benzoyl)piperazine-1-carboxylate], for which it took 1.5 µM to reach a half-maximal effect (EC50).
Take `CC(=O)c1ccc(-n2c(=O)n3n(c2=O)C2C(=CC3)C(C)(C)Oc3cc(OC(=O)C(C)(C)C)ccc32)cc1` (stereo not shown) [Example 58, 2-(4-acetylphenyl)-7,7-dimethyl-1,3-dioxo-2,3,5,12b-tetrahydro-1H,7H-chromeno[4,3-c][1,2,4]triazolo[1,2-a]pyridazin-10-yl pivalate]: the midpoint of the response, the EC50, lay at 58.7 µM.
With `CC(=O)c1ccc(-n2c(=O)n3n(c2=O)C2C(=CC3)C(C)(C)Oc3cc(OC(=O)N4CCNCC4)ccc32)cc1` (stereo not shown) [Example 67, 2-(4-acetylphenyl)-7,7-dimethyl-1,3-dioxo-2,3,5,12b-tetrahydro-1H,7H-chromeno[4,3-c][1,2,4]triazolo[1,2-a]pyridazin-10-yl piperazine-1-carboxylate hydrochloride] the figure was 17.5 µM.
The same measure for `CC(=O)c1ccc(-n2c(=O)n3n(c2=O)C2C(=CC3)C(C)(C)Oc3cc(OC(=O)N[C@@H](CCCNC(=N)N)C(=O)O)ccc32)cc1` (stereo partly drawn) [Example 78, (((2-(4-acetylphenyl)-7,7-dimethyl-1,3-dioxo-2,3,5,12b-tetrahydro-1H,7H-chromeno[4,3-c][1,2,4]triazolo[1,2-a]pyridazin-10-yl)oxy)carbonyl)-L-arginine 2,2,2-trifluoroacetic acid]: 5.2 µM.
